Measurements published in ChEMBL document CHEMBL1142863, “A potent, covalent inhibitor of orotidine 5'-monophosphate decarboxylase with antimalarial activity” (J Med Chem, 2007).
≈ marks a conversion by molar mass, not a printed value. Calls of active or inactive are those of the source. The calls are words filed in the database; no cut-off is given here.

Experiments:
[1] = Solubility in distilled water; type: physicochemical
Plasmodium falciparum = test: Antiparasitic activity against chloroquine-resistant Plasmodium falciparum ItG after 48 hrs by SYBR-Green assay; type: functional, organism-based
[2] = Dissociation constant, pKa of the compound; type: physicochemical
[3] = target: Orotidine 5'-phosphate decarboxylase (Methanobacterium thermoautotrophicum) (UniProt O26232); test: Inhibition of Methanobacterium thermoautotrophicum ODCase at 250 uM in less than 30 mins; details: Methanothermobacter thermautotrophicus
Chain of Orotidine 5'-phosphate decarboxylase (Methanobacterium thermoautotrophicum) (O26232 whole entry, looked up): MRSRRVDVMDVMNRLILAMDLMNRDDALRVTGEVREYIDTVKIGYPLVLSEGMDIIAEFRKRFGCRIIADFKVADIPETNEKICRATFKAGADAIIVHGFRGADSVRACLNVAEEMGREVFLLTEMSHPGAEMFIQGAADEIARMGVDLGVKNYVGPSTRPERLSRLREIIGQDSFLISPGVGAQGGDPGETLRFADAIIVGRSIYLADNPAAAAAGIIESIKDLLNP

[4] = target: Orotidine 5'-phosphate decarboxylase (Methanobacterium thermoautotrophicum) (UniProt O26232); test: Inhibition of Methanobacterium thermoautotrophicum ODCase at 50 uM after 8 hrs; design: scale not given: the % may be the effect or the level left; details: Methanothermobacter thermautotrophicus
[5] = target: T1, Orotidine phosphate decarboxylase (Plasmodium falciparum) (UniProt Q8T6J6); test: Inhibition of Plasmodium falciparum ODCase
T1 sequence (whole entry): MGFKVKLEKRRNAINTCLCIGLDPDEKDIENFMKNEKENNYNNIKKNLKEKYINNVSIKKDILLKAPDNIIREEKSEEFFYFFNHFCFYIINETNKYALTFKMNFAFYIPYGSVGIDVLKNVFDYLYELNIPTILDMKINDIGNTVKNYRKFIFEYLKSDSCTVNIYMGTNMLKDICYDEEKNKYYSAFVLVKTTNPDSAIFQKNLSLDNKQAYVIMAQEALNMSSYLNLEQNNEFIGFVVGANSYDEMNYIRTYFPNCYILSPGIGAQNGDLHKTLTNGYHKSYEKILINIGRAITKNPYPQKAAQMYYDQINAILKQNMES

Activity [3]	Activity [4] [%]	Activity [5]	SMILES	solubility [1] [µg/mL]	IC50 (Plasmodium falciparum) [µM]	pKa [2]
			O=c1cc(I)n([C@@H]2O[C@H](CO)[C@@H](O)[C@H]2O)c(=O)[nH]1	4320 (≈ 11.7 mM)	4.4	8.42
Active	> 60	Active	O=c1cc(I)n([C@@H]2O[C@H](COP(=O)(O)O)[C@@H](O)[C@H]2O)c(=O)[nH]1			
